Holding throughout (format): cell-based, human
Series [1] has as its system RPE cells. In words: Anisomycin toxicity to RPE cells (cellular morphology 72 hours post-treatment). The conditions noted are these: low levels, 5 minute treatment. As for the experimental part:
To determine possible toxicity of anisomycin to RPE cells, RPE cells were treated with anisomycin at different concentration for 5 minute periods. Following treatment, the medium was replaced and fresh medium was added. 72 hours post-treatment, the cells were photographed. […] Their viability was then assayed by the XTT assay.

The subject of series [2] is RPE cells. In words: SA-β-gal staining (senescence marker).
Series [3] concerns ARPE-19 cells. In words: XTT cell viability / proliferation assay. The procedure:
Cell viability assays ARPE-19 cells were seeded in 96-well plates (5000 cells/well) in full medium and were pretreated with the TAK1 inhibitor 5Z-7-oxozeaenol (1 μM) or left untreated for 1 hour. Their viability was then assayed by the XTT assay (cell proliferation kit cat #20-300-1000; Beit Haemek, Israel).

Series [4] deals with RPE cells. The series is described as follows: Conditioned media (SASP) applied on fresh RPE cells, morphology. The procedure:
FIG. 5 presents photographs showing that TAK1 inhibition contributes to the SASP of the RPE cells, causing hypertrophy and dysfunction. RPE cells were grown with the TAK1 inhibitor and/or H2O2 ([…]) or without treatment. After 2 weeks, conditioned media from the differently treated cells were centrifuge and the supernatants was employed on new freshly cells. Representative photographs of fresh RPE cells treated for 72 hours with the indicated conditioned media are shown. Scale bar=50 μm.
The most significant effect of senescence, is the acquisition of a senescence-associated secretory phenotype (SASP). SASP can convert senescent cells to proinflammatory cells that promote the secretion of chemokines and cytokines that can affect the microenvironment, including in the human retina (16, 17). To examine the role of TAK1 in this process, RPE cells were treated with TAK1 inhibitor or with H2O2, alone or in combination. After 2 weeks, the media was collected from the three separate treatments, centrifuged and the supernatants (conditioned media) were applied on fresh RPE cells for 72 hours.

Series [5] concerns RPE cells (ARPE-19). In words: Annexin and propidium iodide double-staining FACS assay of RPE cells (apoptosis). The procedure:
(§1) Double-staining (annexin and propidium iodide (PI)) assay of RPE cells. RPE cells (ARPE-19, available from ATCC) were treated for one hour with the TAK1 inhibitor {5Z-7-oxozeaenol (1 μM)}, following 200 μM H2O2 for one hour or left untreated. The cells were then washed with fresh medium and after 24 hours were trypsinized, stained, and analyzed by FACS. The percentage of cells in each cell-cycle phase (G1/G0, S, and G2/M) was determined by its DNA content (FL2A).
The role of TAK1 in the inflammatory response is characterized (12, 13), but little is known about its participation in the response of RPE cells to stress. RPE cells were treated with the TAK1 inhibitor 5Z-7-oxozeaenol (1 μM) for 1 hour before further treatment with H2O2 (200 μM). […] In contrast, in cells treated with the TAK1 inhibitor prior to their treatment with H2O2 the number apoptotic cells was 24% (FIG. 1A). The number of cells in the late apoptosis section of each FACS chart (annexin and Pi, upper right panel) was similar with or without TAK1 inhibitor.
Background: A flow cytometer gives signals particle by particle.

The test system of series [6] is RPE cells (ARPE-19). In words: FACS cell-cycle phase analysis by DNA content (FL2A). As for the experimental part: as §1
To examine the effect of TAK1 inhibition on the RPE cell cycle, RPE cells were treated with TAK1 inhibitor, with or without H2O2. The RPE cells are quiescent and mostly located at the G0/G1 stage (FIGS. 1B and 1C), however, following TAK1 inhibition the percentage of cells at the G0/G1 stage increased to 89% of the total number. […] This phenomenon was reduced upon TAK1 inhibition prior to the oxidative stress (FIGS. 1B and C). The Cell cycle arrest at G0/G1 upon TAK1-inhibition was further supported by the reduction in proliferation of RPE cells observed in the presence of the TAK1 inhibitor (FIG. 1D).

Series [7] deals with p53, phospho-p38. The series is described as follows: Western blot of p53 and phospho-p38 in RPE cells under oxidative stress. The procedure: Western blot analysis was performed by standard protocols (11), p53, p38, phospho-p38, GADPH, and TAK1; antibodies were obtained from Enco, Israel.
The p53 protein is known to play a critical role in cell-cycle regulation, DNA repair, and programmed cell death (14, 15). In view of this knowledge, and given the above-described observation that TAK1 inhibition reduced apoptosis, the expression of p53 in RPE cells was examined.
For orientation: Immunoblotting shows a protein as a band on a membrane.

Series [8] relates to RPE cells. In words: RPE cell size quantification (hypertrophy). As to conditions: oxidative stress with TAK-1 inhibition; N=40 cells. The procedure: N=40 cells for each treatment. One of the hallmarks of RPE senescence is cellular hypertrophy. RPE cell size is approximately […]; but upon oxidative stress or genetic mutation RPE cells can undergo enlargement.
[9] abbreviates: medium from cells treated 2 weeks with the single agent.

The structures appear in SMILES notation.

`COc1ccc(C[C@H]2NC[C@H](O)[C@H]2OC(C)=O)cc1` [anisomycin, (2R,3S,4S)-4-hydroxy-2-(4-methoxybenzyl)-pyrrolidin-3-yl acetate]: the “toxicity to RPE cells” value in series [1] is recorded as “not toxic”. In series [2] (H2O2 1 hour, 10 days growth, anisomycin 10 ng/ml 5 min, five more days, versus untreated cells exposed to oxidative stress), the “number of SA-β-Gal positive cells” value is reported as “reduces the number of SA-β-Gal positive cells”. Moreover, the “rate of cell proliferation” value in series [3] (oxidative stress and anisomycin) was “did not display reduction”.
As for `OO` [H2O2], in series [4] (setting [9]), the “phenotype of fresh RPE cells after 72 hours with conditioned medium” value is “hypertrophic phenotype similar to that of senescent cells”. The “number of apoptotic cells as a percentage of the total number” value in series [5] (H2O2 alone (200 μM), untreated cells 1.25%) worked out at 31%. Also, in series [6] (H2O2 treatment alone), the G2/M arrest entry is “high levels of G2/M arrest”.
Consider `CC1=C(/C=C/C(C)=C/C=C/C(C)=C/c2cc(/C=C/C=C(C)/C=C/C3=C(C)CCCC3(C)C)cc[n+]2CCO)C(C)(C)CCC1` [A2E], for which, in series [2] (A2E 5 μM added to cultured RPE cells), the senescent phenotype result was “increases the senescent phenotype”.
As to `COc1cc(O)c2c(c1)/C=C/C[C@H](O)[C@H](O)C(=O)/C=C\C[C@H](C)OC2=O` [5Z-7-oxozeaenol], the “phenotype of fresh RPE cells after 72 hours with conditioned medium” value is “hypertrophic phenotype similar to that of senescent cells” in series [4] (setting [9]); “aberrant morphology similar to that of atrophic RPE cells” in series [4] (medium from cells treated with both TAK1 inhibitor and H2O2). The “number of cells expressing SA-β-gal” value in series [2] (TAK1 inhibitor alone, relative to untreated cells) is listed as “dramatically increased”. Besides, in series [2] (TAK1 inhibitor pretreatment then oxidative stress (200 μM H2O2 1 hour), days 13 and 16), the SA-β-gal expression entry was “strongly increased”. The “number of apoptotic cells as a percentage of the total number” value in series [5] (TAK1 inhibitor 1 μM 1 hour prior to H2O2 200 μM, FACS after 24 hours) was 24%. Moreover, the “G2/M arrest under oxidative stress” value in series [6] (TAK1 inhibition prior to H2O2 treatment) is “reduced”. Besides, in series [6] (TAK1 inhibitor 1 μM, without H2O2), the “percentage of cells at the G0/G1 stage” value stood at 89%. Further, in series [7] (TAK1 inhibition, days), the “p53 expression levels over a longer period” value was “reduced p53 expression levels slightly more than the untreated cells”. Also, the p38 phosphorylation result in series [7] (TAK1 inhibitor 1 μM pretreatment, oxidative stress) is recorded as “inhibition of p38 phosphorylation”. Besides, the “time of p53 expression peak” value in series [7] (pretreated with TAK1 inhibitor 1 μM, oxidative stress, control peak after 60 min) turned out to be 10 min. In addition, the “proliferation rate (optical density)” value in series [3] (5Z-7-oxozeaenol 1 μM pretreatment 1 hour, versus untreated cells peaking on day 4) is “slower proliferation rate”. Further, the cell size entry in series [8] is reported as “increases cell size”.

(Values after patent US10682328B2, “Compositions and methods for treatment of retinal degenerative diseases” (MOR RESEARCH APPLICATIONS LTD., priority 2014, dated 2020).)
